Assay results published in ChEMBL document CHEMBL1142794, “New alpha-methylene-gamma-butyrolactones with antimycobacterial properties” (2005).
In brackets after ≈: the same amount, converted by molar mass.

Experiments:
[1] = system: Mycobacterium tuberculosis variant bovis; experiment: In vitro minimum inhibitory concentration dissolved in DMSO against Mycobacterium bovis BCG using BACTEC 460 radiometric system; Range=0.75-1.5 ug/mL; assay type: functional
[2] = system: Mycobacterium tuberculosis variant bovis; experiment: In vitro minimum inhibitory concentration dissolved in DMSO against Mycobacterium bovis BCG using BACTEC 460 radiometric system; assay type: functional

SMILES: CCCCCCCCCCS(=O)(=O)NC(C)=O
- MIC99 [1]: 1.5 µg/mL (≈ 5.69 µM)

SMILES: C=CCNC(=O)[C@@H]1C(=C)C(=O)O[C@H]1CCCCCC
- MIC99 [2]: 12.5 µg/mL (≈ 47.1 µM)

SMILES: C=C1C(=O)O[C@@H](CCCCCCCC)[C@@H]1C(=O)NCC(=O)O
- MIC99 [2]: > 25 µg/mL

SMILES: C=C1C(=O)O[C@@H](CCCCCCCC)[C@@H]1C(=O)NCC(=O)OC
- MIC99 [2]: 25 µg/mL (≈ 76.8 µM)

SMILES: C=C1C(=O)O[C@@H](CCCCCCCC)C1C(=O)O (stereo not given in full)
- MIC99 [2]: > 25 µg/mL

SMILES: C=C1C(=O)O[C@@H](CCCCCCCC)C1C(=O)OC (stereo not given in full)
- MIC99 [2]: > 25 µg/mL

SMILES: C=C1C(=O)O[C@@H](CCCCCCCC)[C@@H]1C(=O)NNc1cccc(Cl)c1
- MIC99 [2]: > 25 µg/mL

SMILES: C=CCNC(=O)[C@@H]1C(=C)C(=O)O[C@H]1CCCCCCCCCCCC
- MIC99 [2]: 6.25 µg/mL (≈ 17.9 µM)

SMILES: C=C1C(=O)O[C@@H](CCCCCCCC)[C@@H]1C(=O)NCc1ccccc1
- MIC99 [2]: 25 µg/mL (≈ 72.8 µM)

SMILES: CCCC[C@@H]1OC(=O)C(=O)C1C(=O)OC (stereo not given in full)
- MIC99 [2]: > 25 µg/mL

SMILES: C=CCNC(=O)[C@H]1[C@H](CCCCCCCC)OC(=O)[C@H]1C
- MIC99 [2]: > 25 µg/mL

SMILES: C=CCNC(=O)[C@H]1[C@H](CCCCCCCC)OC(=O)[C@@H]1C
- MIC99 [2]: > 25 µg/mL

SMILES: C=CCNC(=O)[C@@H]1C(=C)C(=O)O[C@H]1CCCCCCCC
- MIC99 [2]: 12.5 µg/mL (≈ 42.6 µM)

SMILES: C=C1C(=O)O[C@@H](CCCCCCCC)[C@@H]1C(=O)NCCO
- MIC99 [2]: 25 µg/mL (≈ 84.1 µM)

SMILES: CCCCCCCCCC[C@@H]1OC(=O)C(=O)C1C(=O)OC (stereo not given in full)
- MIC99 [2]: > 25 µg/mL

SMILES: CCCCCCCC[C@@H]1OC(=O)C(=O)C1C(=O)OC (stereo not given in full)
- MIC99 [2]: > 25 µg/mL

SMILES: C=CCNC(=O)[C@@H]1C(=C)C(=O)O[C@H]1CCCC
- MIC99 [2]: 12.5 µg/mL (≈ 52.7 µM)

SMILES: C=C1C(=O)O[C@@H](CCCCCCCC)[C@@H]1C(=O)NC/C=C/CC(=O)OC
- MIC99 [2]: 25 µg/mL (≈ 68.4 µM)

SMILES: C=CCNC(=O)OCCNC(=O)[C@@H]1C(=C)C(=O)O[C@H]1CCCCCCCC
- MIC99 [2]: > 25 µg/mL

SMILES: NNC(=O)c1ccncc1 [ISONIAZID]
- MIC99 [2]: 0.1 µg/mL (≈ 0.729 µM)
